Laboratory results reported in ChEMBL document CHEMBL6120940, “Discovery of N-Aryl-N'-[4-(aryloxy)cyclohexyl]squaramide-Based Inhibitors of LXR/SREBP-1c Signaling Pathway Ameliorating Steatotic Liver Disease: Navigating the Role of SIRT6 Activation” (J Med Chem, 2024).
Active and inactive are the calls of the source. No cut-off for these calls is given here.

Key:
Hepatocyte [1] = assay: Downregulation of Cd36 mRNA level in mouse Hepatocyte at 10 uM incubated for 30 mins followed by T0901317 addition by RT-qPCR analysis; assay type: functional, cell-based
HepG2 [2] = assay: Downregulation of LXR level in human HepG2 cells at 10 uM preincubated for 30 mins followed by OSS128167 addition and measured after 12 hrs; assay type: functional, cell-based; conditions: time 12.5 hrs
HepG2 [3] = assay: Downregulation of SREBP-1c expression in human HepG2 cells at 5 uM pretreated with compound for 30 mins followed by T0901317 addition and measured after 12 hrs in presence of compound C by immunoblot analysis; assay type: functional, cell-based; conditions: time 12.5 hrs
Hepatocyte [4] = assay: Effect on Acox-2 gene expression in mouse hepatocyte; assay type: functional, cell-based
Hepatocyte [5] = assay: Effect on Cpt1 gene expression in mouse hepatocyte; assay type: functional, cell-based
HepG2 [6] = assay: Downregulation of LXRalpha expression level in nucleus of human HepG2 cells at 10 uM preincubated with compound for 30 mins followed by T0901317 addition and measured after 24 hrs by immunoblot analysis; assay type: functional, cell-based; conditions: time 24.5 hrs
HepG2 [7] = assay: Downregulation of SCD mRNA level in human HepG2 cells at 10 uM pretreated with compound for 30 mins followed by T0901317 addition and measured after 12 hrs by RT-qPCR analysis; assay type: functional, cell-based; conditions: time 12.5 hrs
Mus musculus [8] = assay: Anti-lipogenic activity against high fat died induced male C57BL/6J mouse obesity model assessed as downregulation of Srebp-1c level at 15 mg/kg, po administered three times per week and measured after 5 weeks by RT-qPCT analysis; assay type: functional, organism-based
Mus musculus [9] = assay: Anti-lipogenic activity against high fat died induced male C57BL/6J mouse obesity model assessed as downregulation of Ccl5 mRNA level at 15 mg/kg, po administered three times per week and measured after 5 weeks by RT-qPCT analysis; assay type: functional, organism-based
HepG2 [10] = assay: Downregulation of ACACA level in human HepG2 cells at 10 uM preincubated for 30 mins followed by OSS128167 addition and measured after 12 hrs; assay type: functional, cell-based; conditions: time 12.5 hrs
HepG2 [11] = assay: Downregulation of SCD gene expression in human HepG2 cells in presence of T0901317 by RNA sequencing analysis; assay type: functional, cell-based
[12] = target: T1, Oxysterols receptor LXR-alpha (Homo sapiens) (UniProt Q13133); assay: Inhibition of LXRalpha in human HepG2 cells expressing LXRE at 2.5 to 5 uM preincubated for 30 mins followed by T0901317 addition and measured after 24 hrs by Dual-glo luciferase assay; assay type: cell-based; conditions: dose 2.5-5 µM, time 24.5 hrs
T1 sequence (whole entry): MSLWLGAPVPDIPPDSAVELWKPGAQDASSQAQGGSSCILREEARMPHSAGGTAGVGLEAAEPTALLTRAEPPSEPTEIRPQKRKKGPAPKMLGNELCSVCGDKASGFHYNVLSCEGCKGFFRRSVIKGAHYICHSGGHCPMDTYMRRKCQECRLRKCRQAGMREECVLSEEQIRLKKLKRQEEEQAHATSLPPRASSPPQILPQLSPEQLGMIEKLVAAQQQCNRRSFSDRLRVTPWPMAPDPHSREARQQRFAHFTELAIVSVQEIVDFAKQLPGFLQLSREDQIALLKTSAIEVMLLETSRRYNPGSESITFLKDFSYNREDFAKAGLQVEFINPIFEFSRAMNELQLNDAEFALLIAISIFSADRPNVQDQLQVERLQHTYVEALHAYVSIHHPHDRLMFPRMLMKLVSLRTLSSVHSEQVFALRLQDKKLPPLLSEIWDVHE

CYP2D6 = CYP2D6 (Homo sapiens, UniProt P10635); assay: Inhibition of CYP2D6 in human liver microsomes at 10 uM using dextromethorphan as substrate preincubated for 5 mins followed by NADPH generating system addition and measured after 15 mins relative to control; assay type: ADME, Microsome; conditions: probe dextromethorphan, time 20 min
[13] = Metabolic stability in mouse liver microsomes at 1 uM measured after 30 mins in presence of NADPH regeneration system by LC-MS/MS analysis; assay type: ADME, Microsome; conditions: read-out: Stability
[14] = Stability in mouse plasma measured after 120 mins by LC-MS/MS analysis; assay type: ADME, cell-free; conditions: read-out: Stability
CYP3A4 = CYP3A4 (Homo sapiens, UniProt P08684); assay: Inhibition of CYP3A4 in human liver microsomes at 10 uM using midazolam as substrate preincubated for 5 mins followed by NADPH generating system addition and measured after 15 mins relative to control; assay type: ADME, Microsome; conditions: probe midazolam, time 20 min
[15] = Oral bioavailability in 16 hrs fasted ICR mouse at 20 mg/kg measured upto 8 hrs by LC-MS/MS analysis; assay type: ADME, organism-based; conditions: in vivo
[16] = Downregulation of SREBP-1c mRNA expression in human HepG2 cells at 10 uM pretreated with compound for 30 mins followed by T0901317 addition and measured after 12 hrs by RT-qPCR analysis relative to control; assay type: functional; conditions: time 12.5 hrs

Sequence of CYP3A4 (P08684 whole entry): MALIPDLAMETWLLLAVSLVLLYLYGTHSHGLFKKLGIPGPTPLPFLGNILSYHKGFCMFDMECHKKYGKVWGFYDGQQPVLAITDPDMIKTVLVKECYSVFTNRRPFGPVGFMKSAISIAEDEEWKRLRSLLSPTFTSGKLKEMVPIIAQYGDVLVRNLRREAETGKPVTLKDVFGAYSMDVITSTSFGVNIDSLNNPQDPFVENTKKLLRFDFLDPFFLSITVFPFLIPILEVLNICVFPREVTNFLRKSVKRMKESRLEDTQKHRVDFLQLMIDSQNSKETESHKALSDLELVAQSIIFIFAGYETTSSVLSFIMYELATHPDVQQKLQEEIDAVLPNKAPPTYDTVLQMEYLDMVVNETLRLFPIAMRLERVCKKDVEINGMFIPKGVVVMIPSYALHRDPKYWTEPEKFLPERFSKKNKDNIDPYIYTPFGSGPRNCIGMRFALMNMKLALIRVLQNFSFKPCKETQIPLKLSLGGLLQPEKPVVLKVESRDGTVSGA
Sequence of CYP2D6 (P10635 whole entry): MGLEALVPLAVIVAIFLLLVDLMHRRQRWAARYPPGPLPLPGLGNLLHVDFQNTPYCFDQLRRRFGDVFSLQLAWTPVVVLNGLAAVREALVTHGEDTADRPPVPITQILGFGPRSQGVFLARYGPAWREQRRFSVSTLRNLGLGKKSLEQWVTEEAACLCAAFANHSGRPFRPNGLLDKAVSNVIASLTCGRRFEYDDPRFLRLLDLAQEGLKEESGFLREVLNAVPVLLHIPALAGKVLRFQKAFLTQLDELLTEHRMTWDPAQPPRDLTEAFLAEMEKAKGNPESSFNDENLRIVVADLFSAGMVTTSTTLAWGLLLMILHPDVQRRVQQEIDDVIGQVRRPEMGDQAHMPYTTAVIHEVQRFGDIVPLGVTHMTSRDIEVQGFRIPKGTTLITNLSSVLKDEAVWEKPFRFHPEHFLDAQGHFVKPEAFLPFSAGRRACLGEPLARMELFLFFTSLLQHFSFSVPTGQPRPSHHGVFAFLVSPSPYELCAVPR

inhibition [12]: Active
inhibition at 0.25 h, 10 µM (CYP2D6): > 100%
remaining at 0.5 h, 1 µM [13]: 46.9%
remaining at 2 h [14]: > 100%
inhibition at 0.25 h, 10 µM (CYP3A4): 91.6%
bioavailability [15]: 11.2%
Structure (SMILES): COc1ccccc1Nc1c(N[C@H]2CC[C@H](Oc3ccc([N+](=O)[O-])cc3)CC2)c(=O)c1=O
Activity (Hepatocyte [1]): inactive
Activity (HepG2 [2]): inactive
Activity (HepG2 [3]): inactive
Activity (Hepatocyte [4]): inactive
Activity (Hepatocyte [5]): inactive
Activity (HepG2 [6]): Active
Activity (HepG2 [7]): Active
Activity (Mus musculus [8]): Active
Activity (Mus musculus [9]): Active
Activity (HepG2 [10]): inactive
Activity (HepG2 [11]): Active
Activity [16]: 16.2%
